# Patent US7109354B2, “Thiophene amidines, compositions thereof, and methods of treating complement-mediated diseases and conditions” (3-Dimensional Pharmaceuticals, Inc., priority 2002, dated 2006)
# Where a name gives a salt, the structure may show the parent alone.
# Target: T1, Activated human C1s (Homo sapiens, UniProt P09871)
# T1 construct: purchased Calbiochem (La Jolla, Calif.)
# T1 sequence (P09871 438-688 limits assumed): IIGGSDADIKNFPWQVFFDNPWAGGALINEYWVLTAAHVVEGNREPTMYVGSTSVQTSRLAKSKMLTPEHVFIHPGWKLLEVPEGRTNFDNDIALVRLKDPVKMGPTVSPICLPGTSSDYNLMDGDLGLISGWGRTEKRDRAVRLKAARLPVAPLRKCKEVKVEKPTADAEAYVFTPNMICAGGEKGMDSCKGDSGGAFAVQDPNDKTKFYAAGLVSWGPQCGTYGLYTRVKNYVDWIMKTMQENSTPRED
# T1 sequence (P09871 16-437 partner limits assumed): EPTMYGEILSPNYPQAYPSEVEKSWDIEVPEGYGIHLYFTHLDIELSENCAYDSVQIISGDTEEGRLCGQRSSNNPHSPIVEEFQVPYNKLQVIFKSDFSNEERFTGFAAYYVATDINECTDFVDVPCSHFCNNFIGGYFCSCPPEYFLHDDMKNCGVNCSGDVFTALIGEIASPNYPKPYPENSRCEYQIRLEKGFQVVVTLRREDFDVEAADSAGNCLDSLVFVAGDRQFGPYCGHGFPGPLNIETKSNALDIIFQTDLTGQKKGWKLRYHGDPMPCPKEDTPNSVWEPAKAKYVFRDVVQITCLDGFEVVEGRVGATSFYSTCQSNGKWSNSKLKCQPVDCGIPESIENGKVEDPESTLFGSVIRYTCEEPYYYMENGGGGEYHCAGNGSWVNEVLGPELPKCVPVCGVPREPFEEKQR
# Test: In vitro inhibition of C1s (Ki determination, C1s-catalyzed hydrolysis of Z-Gly-Arg-S-Bzl, DTNB readout)
# Assay type: biochemical
# Details: substrate Z-Gly-Arg-S-Bzl 45 μM, DTNB 200 μM, C1s 2.3 nM, pH 7.5, 37° C., absorbance at 405 nm
row,SMILES,Ki
1,"CSc1sc(C(=N)N)cc1S(=O)(=O)c1cc(Br)c2c(c1)ncn2Cc1cc(F)ccc1F [Example 275, 4-[7-Bromo-1-(2,5-difluoro-benzyl)-1H-benzoimidazole-5-sulfonyl]-5-methylsulfanyl-thiophene-2-carboxamidine trifluoroacetate]",6 to 23 nM
2,"CSc1sc(C(=N)N)cc1S(=O)(=O)c1cccc(-c2c(C)cccc2NC(=O)CCCCCCCCCCN)c1 [Example 211, 11-Amino-undecanoic acid [3′-(5-carbamimidoyl-2-methylsulfanyl-thiophene-3-sulfonyl)-6-methyl-biphenyl-2-yl]-amide bistrifluoroacetate]",6 to 23 nM
3,"C=CCOc1cc(-c2ccccc2)cc(S(=O)(=O)c2cc(C(=N)N)sc2SC)c1 [Example 16, 4-(5-Allyloxy-biphenyl-3-sulfonyl)-5-methylsulfanyl-thiophene-2-carboxamidine]",6 to 23 nM
4,"CSc1sc(C(=N)N)cc1S(=O)(=O)c1cccc(-c2ccccc2C)c1 [Example 90, 4-(2′-methyl-biphenyl-3-sulfonyl)-5-methylsulfanyl-thiophene-2-carboxamidine]",6 to 23 nM
5,"CSc1sc(C(=N)N)cc1S(=O)(=O)c1cccc(-c2c(C)cccc2C(=O)O)c1 [Example 4, 3′-(5-Carbamimidoyl-2-methylsulfanyl-thiophene-3-sulfonyl)-6-methyl-biphenyl-2-carboxylic acid trifluoroacetate]",6 to 23 nM
6,"CSc1sc(C(=N)N)cc1S(=O)(=O)c1cccc(-c2ccccc2CO)c1 [Example 68, 4-(2′-Hydroxymethyl-biphenyl-3-sulfonyl)-5-methylsulfanyl-thiophene-2-carboxamidine]",6 to 23 nM
7,"CSc1sc(C(=N)N)cc1S(=O)(=O)c1cccc(-c2ccc(Cl)cc2)c1 [Example 53, 4-(4′-Chloro-biphenyl-3-sulfonyl)-5-methylsulfanyl-thiophene-2-carboxamidine]",6 to 23 nM
8,"CSc1sc(C(=N)N)cc1S(=O)(=O)c1cnc(N)c(Br)c1 [Example 119, 4-(6-Amino-5-bromo-pyridine-3-sulfonyl)-5-methylsulfanyl-thiophene-2-carboxamidine]",6 to 23 nM
9,"CSc1sc(C(=N)N)cc1S(=O)(=O)c1cccc(-c2ccc3cccnc3c2)c1 [Example 59, 5-Methylsulfanyl-4-(3-quinolin-7-yl-benzenesulfonyl)-thiophene-2-carboxamidine]",6 to 23 nM
10,"CSc1sc(C(=N)N)cc1S(=O)(=O)c1cccc(-c2c(C)cccc2NC(=O)CS(C)(=O)=O)c1 [Example 257, N-[3′-(5-Carbamimidoyl-2-methylsulfanyl-thiophene-3-sulfonyl)-6-methyl-biphenyl-2-yl]-2-methanesulfonyl-acetamide trifluoroacetate]",6 to 23 nM
11,"COc1cc(Br)cc(S(=O)(=O)c2cc(C(=N)N)sc2SC)c1 [Example 13, 4-(3-Bromo-5-methoxy-benzenesulfonyl)-5-methylsulfanyl-thiophene-2-carboxamidine hydrochloride]",6 to 23 nM
12,"CSc1sc(C(=N)N)cc1S(=O)(=O)c1cccc(-c2ccccc2C=O)c1 [Example 93, 4-(2′-formyl-biphenyl-3-sulfonyl)-5-methylsulfanyl-thiophene-2-carboxamidine]",6 to 23 nM
13,"CSc1sc(C(=N)N)cc1S(=O)(=O)c1cccc(-c2c(C)cccc2N)c1 [Example 25, 4-(2′-Amino-6′-methyl-biphenyl-3-sulfonyl)-5-methylsulfanyl-thiophene-2-carboxamidine trifluoroacetate]",6 to 23 nM
14,"CSc1sc(C(=N)N)cc1S(=O)(=O)c1cccc(-c2ccc(Oc3ccccc3)cc2)c1 [Example 56, 5-Methylsulfanyl-4-(4′-phenoxy-biphenyl-3-sulfonyl)-thiophene-2-carboxamidine]",6 to 23 nM
15,"CSc1sc(C(=N)N)cc1S(=O)(=O)c1cccc(-c2ccc3c(c2)OCO3)c1 [Example 58, 4-(3-Benzo[1,3]dioxol-5-yl-benzenesulfonyl)-5-methylsulfanyl-thiophene-2-carboxamidine]",6 to 23 nM
16,"CSc1sc(C(=N)N)cc1S(=O)(=O)c1cccc(-c2cccc(C=O)c2C)c1 [Example 6, 4-(3′-formyl-2′-methyl-biphenyl-3-sulfonyl)-5-methylsulfanyl-thiophene-2-carboxamidine trifluoroacetate]",6 to 23 nM
17,"CSc1sc(C(=N)N)cc1S(=O)(=O)c1cccc(-c2c(C)cccc2C)c1 [Example 96, 4-(2′,6′-dimethyl-biphenyl-3-sulfonyl)-5-methylsulfanyl-thiophene-2-carboxamidine]",6 to 23 nM

row,SMILES,Ki
1,"CSc1sc(C(=N)N)cc1S(=O)(=O)c1cccc(-c2cccc(C(N)=O)c2)c1 [Example 104, 3′-(5-carbamimidoyl-2-methylsulfanyl-thiophene-3-sulfonyl)-biphenyl-3-carboxylic acid amide]",6 to 23 nM
2,"COc1cc(C)c(-c2cccc(S(=O)(=O)c3cc(C(=N)N)sc3SC)c2)c(NC(=O)CS(C)(=O)=O)c1 [Example 254, N-[3′-(5-Carbamimidoyl-2-methylsulfanyl-thiophene-3-sulfonyl)-4-methoxy-6-methyl-biphenyl-2-yl]-2-methanesulfonyl-acetamide trifluoroacetate]",6 to 23 nM
3,"CSc1sc(C(=N)N)cc1S(=O)(=O)c1cccc(-c2cc3ccccc3o2)c1 [Example 49, 4-(3-Benzofuran-2-yl-benzenesulfonyl)-5-methylsulfanyl-thiophene-2-carboxamidine]",6 to 23 nM
4,"CSc1sc(C(=N)N)cc1S(=O)(=O)c1cccc(-c2ccc(NC(=N)NCCC(C)C)cc2C)c1 [Example 282, 4-{2′-Methyl-4′-[N′-(3-methyl-butyl)-guanidino]-biphenyl-3-sulfonyl}-5-methylsulfanyl-thiophene-2-carboxamidine bistrifluoroacetate]",6 to 23 nM
5,"CSc1sc(C(=N)N)cc1S(=O)(=O)c1cccc(-c2c(C)cccc2NC(=O)CSCC(N)=O)c1 [Example 246, 2-{[3′-(5-Carbamimidoyl-2-methylsulfanyl-thiophene-3-sulfonyl)-6-methyl-biphenyl-2-ylcarbamoyl]-methylsulfanyl}-acetamide trifluoroacetate]",6 to 23 nM
6,"CCOc1ccc(-c2cccc(S(=O)(=O)c3cc(C(=N)N)sc3SC)c2)cc1 [Example 88, 4-(4′-ethoxy-biphenyl-3-sulfonyl)-5-methylsulfanyl-thiophene-2-carboxamidine]",6 to 23 nM
7,"CSc1sc(C(=N)N)cc1S(=O)(=O)c1cccc(-c2cccc3ccccc23)c1 [Example 91, 5-methylsulfanyl-4-(3-naphthalen-1-yl-benzenesulfonyl)-thiophene-2-carboxamidine]",6 to 23 nM
8,"CSc1sc(C(=N)N)cc1S(=O)(=O)c1cccc(-c2ccccc2N)c1 [Example 107, 4-(2′-amino-biphenyl-3-sulfonyl)-5-methylsulfanyl-thiophene-2-carboxamidine]",6 to 23 nM
9,"CSc1sc(C(=N)N)cc1S(=O)(=O)c1cccc(-c2c(C)cc(Cl)cc2NC(=O)CCCS(C)(=O)=O)c1 [Example 135, N-[3′-(5-Carbamimidoyl-2-methylsulfanyl-thiophene-3-sulfonyl)-4-chloro-6-methyl-biphenyl-2-yl]-4-methanesulfonyl-butyramide trifluoroacetate]",6 to 23 nM
10,"CSc1sc(C(=N)N)cc1S(=O)(=O)c1cccc(-c2cccc(O)c2)c1 [Example 35, 4-(3′-Hydroxy-biphenyl-3-sulfonyl)-5-methylsulfanyl-thiophene-2-carboxamidine trifluoroacetate]",6 to 23 nM
11,"CSc1sc(C(=N)N)cc1S(=O)(=O)c1cccc(-c2ccc3[nH]cnc3c2)c1 [Example 106, 4-[3-(1H-benzoimidazol-5-yl)-benzenesulfonyl]-5-methylsulfanyl-thiophene-2-carboxamidine]",6 to 23 nM
12,"CSc1sc(C(=N)N)cc1S(=O)(=O)c1ccc2ccccc2c1 [Example 37, 5-Methylsulfanyl-4-(naphthalene-2-sulfonyl)-thiophene-2-carboxamidine triflouroacetate]",6 to 23 nM
13,"COC(=O)c1ccc(-c2cccc(S(=O)(=O)c3cc(C(=N)N)sc3SC)c2)cc1 [Example 74, 3′-(5-Carbamimidoyl-2-methylsulfanyl-thiophene-3-sulfonyl)-biphenyl-4-carboxylic acid methyl ester]",6 to 23 nM
14,"CSc1sc(C(=N)N)cc1S(=O)(=O)c1cccc(-c2ccc(C)cc2)c1 [Example 52, 4-(4′-Methyl-biphenyl-3-sulfonyl)-5-methylsulfanyl-thiophene-2-carboxamidine]",6 to 23 nM
15,"CSc1sc(C(=N)N)cc1S(=O)(=O)c1cccc(-c2ccc(NC3=NCCN3)cc2C)c1 [Example 233, 4-[4′-(4,5-Dihydro-1H-imidazol-2-ylamino)-2′-methyl-biphenyl-3-sulfonyl]-5-methylsulfanyl-thiophene-2-carboxamidine bis-trifluoroacetate]",6 to 23 nM
16,"CSc1sc(C(=N)N)cc1S(=O)(=O)c1cccc(-c2cccc(N)c2)c1 [Example 62, 4-(3′-Amino-biphenyl-3-sulfonyl)-5-methylsulfanyl-thiophene-2-carboxamidine]",6 to 23 nM
